Assay results reported in patent US20060069132A1, “Azolecarboxamide herbicides” (priority 2004, published 2006).
Read-outs that look alike come from different tables or passages of the source.

How the values were obtained:
large crabgrass = test: Test B pre-/postemergence herbicide test; format: in vivo, Digitaria sanguinalis; conditions: for Crabgrass, Large plant response rating (0 to 100 scale) / Plant response rating, Crabgrass, Large / Plant response rating (0 to 100 scale), Crabgrass, Large: preemergence; for pest or weed control at 125 g/ha / pest or weed control at 500 g/ha: Digitaria sanguinalis; for Plant response rating (0 to 100 scale), Crabgrass, Large: 0 is no effect
Outline: (§1)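 Visual rating, 0 (no effect) to 100 (complete control), versus untreated controls after 13–15 d in greenhouse. Pre- and postemergence applications (postemergence plants 2–18 cm, 1–4 leaves); flooded paddy arm at 2-leaf stage. Compounds in non-phytotoxic solvent plus surfactant.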

corn = test: Test B pre-/postemergence herbicide test; format: in vivo, Zea mays; conditions: for Corn plant response rating (0 to 100 scale) / Plant response rating, Corn / Plant response rating (0 to 100 scale), Corn: preemergence; for plant injury at 125 g/ha / plant injury at 500 g/ha / Corn plant response rating (crop injury, 0 = no effect, 100 = complete kill) at 500 g/ha: Zea mays; for Plant response rating (0 to 100 scale), Corn: 0 is no effect
Outline: as §1

[1] = 125 g ai/ha, 0 = no effect, 100 = complete control
[2] = 500 g ai/ha, visual rating, 0 = no effect, 100 = complete control
[3] = postemergence, 125 g ai/ha, visual rating, scale 0 (no effect) to 100 (complete control)
[4] = postemergence, 500 g ai/ha, scale 0 to 100, 0 is no effect, 100 is complete control
[5] = post-emergence, postemergence, 500 g ai/ha, scale 0 to 100, 0 is no effect, 100 is complete control, read-out: Crabgrass, Large plant response rating
[6] = pre-emergence, 500 g ai/ha, visual rating, 0 = no effect, 100 = complete control, read-out: Plant response rating, Crabgrass, Large
[7] = post-emergence, postemergence, 500 g ai/ha, scale 0 to 100, 0 is no effect, 100 is complete control, read-out: Corn plant response rating
[8] = pre-emergence, 500 g ai/ha, visual rating, 0 = no effect, 100 = complete control
[9] = 125 g ai/ha, 100 is complete control
[10] = 125 g ai/ha, visual rating, scale 0 (no effect) to 100 (complete control), postemergence
[11] = Postemergence, 500 g ai/ha, scale 0 (no effect) to 100 (complete control)
[12] = postemergence, 125 g ai/ha, scale 0 to 100

SMILES	Crabgrass, Large plant response rating (0 to 100 scale) (large crabgrass; [1])	Plant response rating, Crabgrass, Large (large crabgrass; [2])	Crabgrass, Large plant response rating (large crabgrass; [4])	Corn plant response rating (0 to 100 scale) (corn; [1])	Plant response rating, Corn (corn; [2])	Corn plant response rating (corn; [4])	pest or weed control at 500 g/ha (large crabgrass; [5])	pest or weed control at 500 g/ha (large crabgrass; [6])	plant injury at 500 g/ha (corn; [7])	Corn plant response rating (crop injury, 0 = no effect, 100 = complete kill) at 500 g/ha (corn; [8])	Plant response rating (0 to 100 scale), Crabgrass, Large (large crabgrass; [9])	Crabgrass, Large plant response rating (large crabgrass; [10])	Plant response rating (0 to 100 scale), Corn (corn; [9])	Corn plant response rating (corn; [10])	further results
CCn1nc(C(C)(C)C)cc1C(=O)Nc1cc(C(=O)OC(C)C)c(F)cc1F [Compound 248]	20	40	20	0	0	30	–	–	–	–	–	–	–	–	Crabgrass, Large plant response rating (large crabgrass; [3]): 10; Corn plant response rating (corn; [3]): 20
CCNC(=O)c1cc(NC(=O)c2cn(C(C)(C)C)nc2CC)ccc1F [Compound 241, 1-(1,1-dimethylethyl)-3-ethyl-N-[3-[(ethylamino)carbonyl]-4-fluorophenyl]-1H-pyrazole-4-carboxamide]	–	–	–	–	–	–	10%	100%	10%	30%	–	–	–	–	pest or weed control at 125 g/ha (large crabgrass; post-emergence, postemergence, 125 g ai/ha, visual rating, scale 0 (no effect) to 100 (complete control), read-out: Crabgrass, Large plant response rating): 0%; pest or weed control at 125 g/ha (large crabgrass; pre-emergence, 125 g ai/ha, 0 = no effect, 100 = complete control, read-out: Crabgrass, Large plant response rating (0 to 100 scale)): 90%; plant injury at 125 g/ha (corn; post-emergence, postemergence, 125 g ai/ha, visual rating, scale 0 (no effect) to 100 (complete control), read-out: Corn plant response rating): 0%; plant injury at 125 g/ha (corn; pre-emergence, 125 g ai/ha, 0 = no effect, 100 = complete control, read-out: Corn plant response rating (0 to 100 scale)): 0%
C#CCNC(=O)c1cccc(NC(=O)c2nn(C(C)(C)C)nc2CC)c1 [Compound 380]	–	–	10	–	–	20	–	–	–	–	90	0	0	0	–
C=CCOc1cccc(NC(=O)c2cc(C(C)(C)C)nn2CC)c1 [Compound 412]	–	–	–	–	–	–	–	–	–	–	50	–	0	–	Crabgrass, Large plant response rating (large crabgrass; [11]): 30; Crabgrass, Large plant response rating (large crabgrass; [12]): 0; Corn plant response rating (corn; [11]): 0; Corn plant response rating (corn; [12]): 0
CCc1nn(C(C)C)nc1C(=O)Nc1cccc(C(=O)N(C)C)c1 [Compound 358, N-[3-[(dimethylamino)carbonyl)phenyl]-5-ethyl-2-(1-methylethyl)-2H-1,2,3-triazole-4-carboxamide]	–	–	–	–	–	–	10%	100%	0%	100%	100	–	60	–	pest or weed control at 125 g/ha (large crabgrass; post-emergence, 125 g ai/ha, visual rating, scale 0 (no effect) to 100 (complete control), read-out: Crabgrass, Large plant response rating): 10%; plant injury at 125 g/ha (corn; post-emergence, 125 g ai/ha, visual rating, scale 0 (no effect) to 100 (complete control), read-out: Corn plant response rating): 0%
CCOC(=O)c1ccc(F)c(NC(=O)c2cc(C3(C)CC3)nn2CC)c1 [Compound 296]	40	100	60	30	40	70	–	–	–	–	–	30	–	30	–
